Experimental data published in article PMC10882719 (Frontiers in Neuroscience, 2024).
Read-outs that look alike come from different tables or passages of the source.

Tests used:
Type in all cases: cell-based
168 GPCRs [1] = target: T1, 168 GPCRs (Homo sapiens, UniProt Q13324)
T1 construct: host or cells: PathHunter cell lines
T1 sequence (Q13324 1-411): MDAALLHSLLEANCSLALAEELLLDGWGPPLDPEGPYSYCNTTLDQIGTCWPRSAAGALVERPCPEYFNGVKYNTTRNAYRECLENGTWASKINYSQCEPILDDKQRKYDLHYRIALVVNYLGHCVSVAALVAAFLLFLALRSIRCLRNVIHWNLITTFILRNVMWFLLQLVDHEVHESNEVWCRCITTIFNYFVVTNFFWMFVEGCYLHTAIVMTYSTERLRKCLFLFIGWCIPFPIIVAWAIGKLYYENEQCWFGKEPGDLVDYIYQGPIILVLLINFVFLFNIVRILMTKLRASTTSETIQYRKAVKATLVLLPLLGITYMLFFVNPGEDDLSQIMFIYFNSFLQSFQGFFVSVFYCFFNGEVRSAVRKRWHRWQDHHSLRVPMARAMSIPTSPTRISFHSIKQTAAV

168 GPCRs [2] = target: T2, 168 GPCRs (Homo sapiens, UniProt P29371); details: TACR3
T2 construct: host or cells: PathHunter cell lines
T2 sequence (P29371 1-465): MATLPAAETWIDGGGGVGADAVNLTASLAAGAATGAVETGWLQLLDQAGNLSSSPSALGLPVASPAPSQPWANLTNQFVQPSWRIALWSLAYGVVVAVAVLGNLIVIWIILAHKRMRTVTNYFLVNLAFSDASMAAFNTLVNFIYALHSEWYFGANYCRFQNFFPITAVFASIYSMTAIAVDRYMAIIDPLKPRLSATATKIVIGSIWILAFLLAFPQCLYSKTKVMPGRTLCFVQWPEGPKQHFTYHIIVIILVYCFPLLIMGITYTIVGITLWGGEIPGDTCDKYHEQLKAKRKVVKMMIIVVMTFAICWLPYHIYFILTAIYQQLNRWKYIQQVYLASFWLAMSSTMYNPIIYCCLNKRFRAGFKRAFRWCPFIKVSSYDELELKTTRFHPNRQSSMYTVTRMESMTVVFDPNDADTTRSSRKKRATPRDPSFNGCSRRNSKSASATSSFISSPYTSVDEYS

168 GPCRs [3] = target: T3, 168 GPCRs (Homo sapiens, UniProt Q92847); details: GHSR
T3 construct: host or cells: PathHunter cell lines
T3 sequence (Q92847 whole entry): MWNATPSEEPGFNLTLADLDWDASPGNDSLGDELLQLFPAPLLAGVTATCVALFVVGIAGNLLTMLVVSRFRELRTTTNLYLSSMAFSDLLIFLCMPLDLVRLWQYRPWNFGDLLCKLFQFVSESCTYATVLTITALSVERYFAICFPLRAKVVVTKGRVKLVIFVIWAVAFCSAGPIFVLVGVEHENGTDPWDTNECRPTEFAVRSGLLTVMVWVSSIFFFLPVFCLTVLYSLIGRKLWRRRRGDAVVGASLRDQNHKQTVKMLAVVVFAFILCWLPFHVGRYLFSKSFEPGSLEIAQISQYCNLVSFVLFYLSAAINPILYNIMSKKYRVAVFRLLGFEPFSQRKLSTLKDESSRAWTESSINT

168 GPCRs [4] = target: T4, 168 GPCRs (Homo sapiens, UniProt P55085)
T4 construct: host or cells: PathHunter cell lines
T4 sequence (P55085 26-397): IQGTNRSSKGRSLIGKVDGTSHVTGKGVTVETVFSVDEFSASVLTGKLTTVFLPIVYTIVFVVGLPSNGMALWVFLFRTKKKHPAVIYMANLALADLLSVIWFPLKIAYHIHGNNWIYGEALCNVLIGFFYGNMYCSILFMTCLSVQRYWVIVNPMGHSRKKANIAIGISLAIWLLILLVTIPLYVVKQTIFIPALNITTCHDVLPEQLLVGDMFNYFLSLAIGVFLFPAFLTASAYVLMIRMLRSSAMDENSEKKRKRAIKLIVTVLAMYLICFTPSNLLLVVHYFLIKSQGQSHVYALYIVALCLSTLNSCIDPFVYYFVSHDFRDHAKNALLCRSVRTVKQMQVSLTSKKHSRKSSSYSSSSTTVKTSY

168 GPCRs [5] = target: T5, 168 GPCRs (Homo sapiens, UniProt P46092)
T5 construct: host or cells: PathHunter cell lines
T5 sequence (P46092 1-362): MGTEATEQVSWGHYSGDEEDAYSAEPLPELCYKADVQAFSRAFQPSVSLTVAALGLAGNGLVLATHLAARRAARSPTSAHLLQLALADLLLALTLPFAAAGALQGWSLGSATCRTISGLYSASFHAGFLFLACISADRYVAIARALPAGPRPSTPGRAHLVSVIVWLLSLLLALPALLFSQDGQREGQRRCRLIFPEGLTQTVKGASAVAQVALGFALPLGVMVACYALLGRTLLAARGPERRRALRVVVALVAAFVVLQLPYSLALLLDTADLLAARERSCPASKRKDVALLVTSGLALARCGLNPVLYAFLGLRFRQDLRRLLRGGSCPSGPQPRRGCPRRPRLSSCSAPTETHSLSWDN

168 GPCRs [6] = target: T6, 168 GPCRs (Homo sapiens, UniProt P61073)
T6 construct: host or cells: PathHunter cell lines
T6 sequence (P61073 whole entry): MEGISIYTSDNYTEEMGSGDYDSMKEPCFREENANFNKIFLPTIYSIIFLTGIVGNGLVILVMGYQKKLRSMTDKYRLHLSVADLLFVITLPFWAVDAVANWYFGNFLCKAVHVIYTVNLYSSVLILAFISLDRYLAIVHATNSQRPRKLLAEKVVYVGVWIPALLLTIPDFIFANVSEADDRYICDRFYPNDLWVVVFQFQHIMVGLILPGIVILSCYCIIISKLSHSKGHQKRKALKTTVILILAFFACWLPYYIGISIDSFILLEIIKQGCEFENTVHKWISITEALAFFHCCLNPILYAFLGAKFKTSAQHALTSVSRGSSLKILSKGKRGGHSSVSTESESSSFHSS

168 GPCRs [7] = target: T7, 168 GPCRs (Homo sapiens, UniProt Q9HBW0)
T7 construct: host or cells: PathHunter cell lines
T7 sequence (Q9HBW0 whole entry): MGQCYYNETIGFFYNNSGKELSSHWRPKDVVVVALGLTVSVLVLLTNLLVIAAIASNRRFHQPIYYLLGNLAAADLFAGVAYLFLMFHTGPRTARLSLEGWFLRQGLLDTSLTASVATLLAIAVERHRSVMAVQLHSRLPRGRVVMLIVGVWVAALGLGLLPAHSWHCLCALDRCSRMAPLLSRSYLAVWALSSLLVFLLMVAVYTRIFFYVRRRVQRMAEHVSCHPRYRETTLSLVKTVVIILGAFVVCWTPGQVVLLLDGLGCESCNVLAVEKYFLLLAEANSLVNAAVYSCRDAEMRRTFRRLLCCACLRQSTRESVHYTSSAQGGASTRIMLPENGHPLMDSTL

Row | SMILES | % Agonist Activity (168 GPCRs [1]; CRHR2, 1 uM) | % Antagonist Activity (168 GPCRs [1]; CRHR2, 1 uM) | % Agonist Activity (168 GPCRs [1]; CRHR2, 10 uM) | % Antagonist Activity (168 GPCRs [1]; CRHR2, 10 uM) | % Agonist Activity (168 GPCRs [2]; Conc 1 uM) | % Antagonist Activity (168 GPCRs [2]; Conc 1 uM) | % Agonist Activity (168 GPCRs [2]; Conc 10 uM) | % Antagonist Activity (168 GPCRs [2]; Conc 10 uM) | % Agonist Activity (168 GPCRs [3]; 1 uM) | % Antagonist Activity (168 GPCRs [3]; 1 uM) | % Agonist Activity (168 GPCRs [3]; 10 uM) | % Antagonist Activity (168 GPCRs [3]; 10 uM) | % Agonist Activity (168 GPCRs [4]; F2RL1, 1 uM) | % Antagonist Activity (168 GPCRs [4]; F2RL1, 1 uM) | % Agonist Activity (168 GPCRs [4]; F2RL1, 10 uM) | % Antagonist Activity (168 GPCRs [4]; F2RL1, 10 uM) | % Agonist Activity (168 GPCRs [5]; CCR10, 1 uM) | % Antagonist Activity (168 GPCRs [5]; CCR10, 1 uM) | % Agonist Activity (168 GPCRs [5]; CCR10, 10 uM) | % Antagonist Activity (168 GPCRs [5]; CCR10, 10 uM) | also measured
1 | CNC(C)Cc1ccc2c(c1)OCO2 (centres unmarked) [MDMA, 3,4-Methylenedioxy methamphetamine, reference compound] | -0.2% | 4.3% | -0.1% | 5.7% | 0.1% | 14.6% | 1% | 19.1% | 3% | -30.8% | 3.1% | -7% | 16.4% | 9.6% | 1.8% | 10.9% | -1.1% | 8.9% | -0.7% | 12.1% | % Agonist Activity (168 GPCRs [6]; CXCR4, 1 uM): 3.1%; % Antagonist Activity (168 GPCRs [6]; CXCR4, 1 uM): 19.6%; % Agonist Activity (168 GPCRs [6]; CXCR4, 10 uM): 2.5%; % Antagonist Activity (168 GPCRs [6]; CXCR4, 10 uM): 14.6%; % Agonist Activity (168 GPCRs [7]; EDG4, 1 uM): 1.5%; % Antagonist Activity (168 GPCRs [7]; EDG4, 1 uM): 7.5%; % Agonist Activity (168 GPCRs [7]; EDG4, 10 uM): 2.2%; % Antagonist Activity (168 GPCRs [7]; EDG4, 10 uM): 10.2%
2 | CNC(C)C(=O)c1ccc2c(c1)OCO2 (centres unmarked) [methylone] | 0.9% | -2% | 0.9% | -0.3% | 0.8% | -3.9% | 1.1% | -14.3% | -6.6% | 25.8% | -7.2% | 9.1% | -0.6% | -26.8% | 3.8% | -16.2% | -2% | 5.4% | -1.8% | 2.6% | % Agonist Activity (168 GPCRs [6]; CXCR4, 1 uM): -4%; % Antagonist Activity (168 GPCRs [6]; CXCR4, 1 uM): 10.7%; % Agonist Activity (168 GPCRs [6]; CXCR4, 10 uM): 7%; % Antagonist Activity (168 GPCRs [6]; CXCR4, 10 uM): -4.2%; % Agonist Activity (168 GPCRs [7]; EDG4, 1 uM): -2.2%; % Antagonist Activity (168 GPCRs [7]; EDG4, 1 uM): -10.2%; % Agonist Activity (168 GPCRs [7]; EDG4, 10 uM): -2.1%; % Antagonist Activity (168 GPCRs [7]; EDG4, 10 uM): -21%
